pIC50: −log10 of the molar value.
Key:
Format in all cases: cell-based
human A2A receptors = molecular target: T1, human A2A receptors (Homo sapiens, UniProt P29274); experiment: Functional human A2A receptor activity, recombinant HEK293 cells, cAMP (HTRF); settings: read-out: A2A (Category)
T1 construct: expressed in transfected cells; host or cells: HEK293
Outline: (§1)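 Read-out is cellular cAMP measured by HTRF, added once a 15 min incubation had ended. cAMP reflects adenosine receptor signalling as the second messenger.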

human A2B receptors = molecular target: T2, human A2B receptors (Homo sapiens, UniProt P29275); experiment: Functional human A2B receptor activity, recombinant HEK293 cells, cAMP (HTRF); settings: read-out: A2B (Category)
T2 construct: expressed in transfected cells; host or cells: HEK293
T2 sequence (P29275 1-332): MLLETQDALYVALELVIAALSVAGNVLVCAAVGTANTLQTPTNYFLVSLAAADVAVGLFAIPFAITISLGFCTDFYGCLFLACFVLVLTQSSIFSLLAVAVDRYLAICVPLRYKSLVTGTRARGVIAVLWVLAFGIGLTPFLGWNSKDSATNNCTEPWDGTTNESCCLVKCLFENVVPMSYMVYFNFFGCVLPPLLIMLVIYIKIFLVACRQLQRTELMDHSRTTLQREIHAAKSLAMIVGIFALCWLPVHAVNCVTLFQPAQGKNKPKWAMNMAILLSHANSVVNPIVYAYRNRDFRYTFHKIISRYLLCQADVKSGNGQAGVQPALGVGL
Outline: as §1

[1] = molecular target: T3, Gs-coupled human A2A receptor (Homo sapiens, UniProt P29274); experiment: Human T cell assay, endogenous A2A receptor, cAMP (HTRF)
T3 construct: The endogenous functional activity of the Gs-coupled human A2A receptor was measured in T cells; endogenous in cells; host or cells: human pan T cells isolated from PBMC of fresh whole blood
Protocol: The endogenous functional activity of the Gs-coupled human A2A receptor was measured in T cells, where this receptor is highly expressed. Determination of receptor activity was done by quantification of cAMP, which is a second messenger for adenosine receptors.
In short, human pan T cells were isolated from human PBMC (MACS Pan T Cell Isolation Kit, Miltenyi Biotec) that have been derived from fresh whole blood. The T cells were seeded in 384-well microtiter plates and treated with test compounds. […] Finally, HTRF reagents (cAMP Femto Kit, CisBio) were added to the wells, and after 1 h cellular cAMP levels were determined using the ENVISION (Perkin Elmer) plate reader.
The obtained raw data were normalized against the inhibitor control and the neutral control (DMSO) and the normalized data were fitted using Genedata Screener software.

Human T cell = Human T cell IL-2; settings: human T cells
mouse Pan T cells = experiment: Mouse T cell IL-2 rescue from NECA (CD3/CD28-activated Pan T cells, ELISA); settings: 24 h
Excerpt: Adenosine (Ado) in tumor microenvironment can inhibit T cell activity by signaling through A2A receptors and suppress cytokine secretion by T cells. […] Potential A2A antagonists or A2A/A2B dual antagonists can rescue T cells from this inhibition. Herein, we describe the in vitro system we established using Pan T cells from mouse spleens to screen potential A2A antagonists or A2A/A2B dual antagonists for their activity. The method described involves the use of CD3/CD28 pre-coated beads to stimulate Pan T cells purified from mouse splenocytes, combined with the addition of A2A agonist along with potential A2A or A2A/A2B dual antagonists to evaluate potentiation of T cell cytokine production.
Briefly, mouse Pan T cells are purified from spleens of BALB/c mice using Pan T cell isolation kit Mouse II (MACS Miltenyi biotech Cat #Order no. 130-095-130) according to manufacturer's protocol. The purified T cells are seeded in Nunc™ 96-Well Polystyrene Round Bottom Microwell Plates in RPMI medium with 10% heat inactivated fetal bovine serum. The cells are rested at 37° C. for 1 h before activating with CD3/CD28 pre-coated beads (Dynabeads™ Mouse T-Activator CD3/CD28; Cat #11456D). After 30 min the cells are treated with varying doses of test antagonist(s). […] After 24 h incubation IL-2 levels in the supernatants are measured by ELISAs according to manufacturer's protocol (R&D systems Cat #DY402 (IL-2)). Once the concentrations are calculated, the difference of cytokine concentration of DMSO control and agonist alone control is calculated and the percentage of rescue by each concentration of antagonist is calculated by using Microsoft Excel. These percentages of cytokine rescue in a dose dependent manner of antagonist is plotted in GraphPad Prism software and IC50 is calculated.

T1 sequence (P29274 whole entry): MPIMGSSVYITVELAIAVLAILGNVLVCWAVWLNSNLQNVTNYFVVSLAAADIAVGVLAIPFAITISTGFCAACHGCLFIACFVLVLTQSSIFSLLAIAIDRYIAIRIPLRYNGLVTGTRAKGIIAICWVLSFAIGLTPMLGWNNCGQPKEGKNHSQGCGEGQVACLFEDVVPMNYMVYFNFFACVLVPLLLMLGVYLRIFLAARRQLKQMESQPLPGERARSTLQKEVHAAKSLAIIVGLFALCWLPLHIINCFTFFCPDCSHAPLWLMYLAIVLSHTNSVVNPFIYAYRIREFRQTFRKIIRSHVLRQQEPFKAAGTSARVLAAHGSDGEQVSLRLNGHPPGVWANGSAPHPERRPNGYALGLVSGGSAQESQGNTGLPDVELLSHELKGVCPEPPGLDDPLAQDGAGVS
T3 sequence (P29274 whole entry): as above

Row | Structure (SMILES) | pIC50 (human A2A receptors) | pIC50 (human A2B receptors) | pIC50 [1] | pIC50 (Human T cell) | pIC50 (mouse Pan T cells)
1 | O=C(c1cc2c(cn1)c(-c1cnc3c(F)cccn13)nn2CC(F)(F)F)N1[C@@H]2CC[C@H]1C[C@@H](O)C2 [Compound 85, [3-(8-fluoroimidazo[1,2-a]pyridin-3-yl)-1-(2,2,2-trifluoroethyl)pyrazolo[4,3-c]pyridin-6-yl]-(3-endo-hydroxy-8-azabicyclo[3.2.1]octan-8-yl)methanone] | > 7.00 | > 7.00 | > 7.00 | > 6.00 | > 7.00
2 | NC(=O)c1ccc2ncc(-c3nn(CC(F)(F)F)c4cc(C(=O)N5CCCOCC5)ncc34)n2c1 [Compound 246, 3-[6-(1,4-Oxazepane-4-carbonyl)-1-(2,2,2-trifluoro-ethyl)-1H-pyrazolo[4,3-c]pyridin-3-yl]-imidazo[1,2-a]pyridine-6-carboxylic acid amide] | > 7.00 | > 6.00 |  |  | 
3 | O=C(c1cc2c(cn1)c(-c1cnc3ccc(Cl)cn13)nn2CC(F)(F)F)N1CCCCCC1 [Compound 48, Azepan-1-yl-[3-(6-chloro-imidazo[1,2-a]pyridin-3-yl)-1-(2,2,2-trifluoro-ethyl)-1H-pyrazolo[4,3-c]pyridin-6-yl]-methanone] | > 7.00 | > 6.00 |  |  | 
4 | Cn1nc(-c2cnc3ccc(F)cn23)c2cnc(C(=O)N3CCCCCC3)cc21 [Compound 41, Azepan-1-yl-[3-(6-fluoro-imidazo[1,2-a]pyridin-3-yl)-1-methyl-1H-pyrazolo[4,3-c]pyridin-6-yl]-methanone] | > 7.00 | > 6.00 |  |  | 
5 | O=C(c1cc2c(cn1)c(-c1cnc3ccc(F)cn13)nn2CC(F)F)N1CCCCCC1 [Compound 3, Azepan-1-yl-[1-(2,2-difluoro-ethyl)-3-(6-fluoro-imidazo[1,2-a]pyridin-3-yl)-1H-pyrazolo[4,3-c]pyridin-6-yl]-methanone] | > 7.00 | > 7.00 |  |  | 
6 | CCCn1nc(-c2cnc3ccc(F)cn23)c2cnc(C(=O)N3CCCCCC3)cc21 [Compound 5, Azepan-1-yl-[3-(6-fluoro-imidazo[1,2-a]pyridin-3-yl)-1-propyl-1H-pyrazolo[4,3-c]pyridin-6-yl]-methanone] | > 7.00 | > 6.00 |  |  | 
7 | O=C(c1cc2c(cn1)c(-c1cnn3ccccc13)nn2CC(F)(F)F)N1CC2CCC(C2)C1 [Compound 102, (3-Aza-bicyclo[3.2.1]oct-3-yl)-[3-pyrazolo[1,5-a]pyridin-3-yl-1-(2,2,2-trifluoro-ethyl)-1H-pyrazolo[4,3-c]pyridin-6-yl]-methanone] | > 7.00 | > 7.00 |  |  | 
8 | O=C(c1cc2c(cn1)c(-c1cnc3c(F)cc(F)cn13)nn2CC1CC1)N1CCCOCC1 [Compound 9, [1-Cyclopropylmethyl-3-(6,8-difluoro-imidazo[1,2-a]pyridin-3-yl)-1H-pyrazolo[4,3-c]pyridin-6-yl]-1,4-oxazepan-4-yl-methanone] | > 7.00 | > 6.00 |  |  | 
9 | CC1(CO)CCN(C(=O)c2cc3c(cn2)c(-c2cnc4c(F)cc(F)cn24)nn3CC(F)(F)F)CC1 [Compound 176, [3-(6,8-Difluoro-imidazo[1,2-a]pyridin-3-yl)-1-(2,2,2-trifluoro-ethyl)-1H-pyrazolo[4,3-c]pyridin-6-yl]-(4-hydroxymethyl-4-methyl-piperidin-1-yl)-methanone] | > 7.00 | > 6.00 |  |  | 
10 | O=C(c1cc2c(cn1)c(-c1cnc3c(F)cc(F)cn13)nn2CC(F)(F)F)N1CCCCC(O)C1 (racemic) [Compound 134, [3-(6,8-Difluoro-imidazo[1,2-a]pyridin-3-yl)-1-(2,2,2-trifluoro-ethyl)-1H-pyrazolo[4,3-c]pyridin-6-yl]-(3-hydroxy-azepan-1-yl)-methanone] | > 7.00 | > 6.00 |  |  | 
11 | CC1(O)CCN(C(=O)c2cc3c(cn2)c(-c2coc4ccccc24)nn3CS(C)(=O)=O)CC1 [Compound 32, (3-Benzofuran-3-yl-1-methanesulfonylmethyl-1H-pyrazolo[4,3-c]pyridin-6-yl)-(4-hydroxy-4-methyl-piperidin-1-yl)-methanone] | > 7.00 | > 6.00 |  |  | 
12 | O=C(c1cc2c(cn1)c(-c1cnc3ccc(O)cn13)nn2CC(F)(F)F)N1[C@@H]2CC[C@H]1C[C@@H](O)C2 [Compound 88, (3-endo-hydroxy-8-azabicyclo[3.2.1]octan-8-yl)-[3-(6-hydroxyimidazo[1,2-a]pyridin-3-yl)-1-(2,2,2-trifluoroethyl)pyrazolo[4,3-c]pyridin-6-yl]methanone] | > 7.00 | > 6.00 |  |  | 
13 | O=C(c1cc2c(cn1)c(-c1cnc3ccc(F)cn13)nn2CC(F)(F)F)N1CC2CCC(C1)O2 [Compound 82, [3-(6-Fluoro-imidazo[1,2-a]pyridin-3-yl)-1-(2,2,2-trifluoro-ethyl)-1H-pyrazolo[4,3-c]pyridin-6-yl]-(8-oxa-3-aza-bicyclo[3.2.1]oct-3-yl)-methanone] | > 7.00 | > 6.00 |  |  | 
14 | O=C(c1cc2c(cn1)c(-c1coc3ccc(F)cc13)nn2CC(F)(F)F)N1CCC(O)CC1 [Compound 115, [3-(5-fluorobenzofuran-3-yl)-1-(2,2,2-trifluoroethyl)pyrazolo[4,3-c]pyridin-6-yl]-(4-hydroxy-1-piperidyl)methanone] | > 7.00 | > 7.00 |  |  | 

Now from value to compound, other results behind:

Row | pIC50 (human A2A receptors) | pIC50 (human A2B receptors) | Structure (SMILES) | pIC50 [1] | pIC50 (Human T cell) | pIC50 (mouse Pan T cells)
15 | > 7.00 | > 7.00 | O=C(c1cc2c(cn1)c(-c1coc3ccccc13)nn2CC(F)(F)F)N1CCOCC(O)C1 (stereo not shown) [Compound 224, [3-(benzofuran-3-yl)-1-(2,2,2-trifluoroethyl)pyrazolo[4,3-c]pyridin-6-yl]-(6-hydroxy-1,4-oxazepan-4-yl)methanone] | > 7.00 | > 7.00 | > 6.00
16 | > 7.00 | > 6.00 | COCC1CCCN1C(=O)c1cc2c(cn1)c(-c1coc3ccccc13)nn2CC(F)(F)F (stereo not shown) [Compound 215, [3-Benzofuran-3-yl-1-(2,2,2-trifluoro-ethyl)-1H-pyrazolo[4,3-c]pyridin-6-yl]-(2-methoxymethyl-pyrrolidin-1-yl)-methanone] |  |  | 
17 | > 7.00 | > 6.00 | CC1(C)CC(O)CCN1C(=O)c1cc2c(cn1)c(-c1coc3ccccc13)nn2CC(F)(F)F (stereo not shown) [Compound 219, [3-Benzofuran-3-yl-1-(2,2,2-trifluoro-ethyl)-1H-pyrazolo[4,3-c]pyridin-6-yl]-(4-hydroxy-2,2-dimethyl-piperidin-1-yl)-methanone] |  |  | 
18 | > 7.00 | > 7.00 | O=C(c1cc2c(cn1)c(-c1coc3ccccc13)nn2CC(F)(F)F)N1CCOCC(F)C1 (stereo not shown) [Compound 230, [3-(benzofuran-3-yl)-1-(2,2,2-trifluoroethyl)pyrazolo[4,3-c]pyridin-6-yl]-[6-fluoro-1,4-oxazepan-4-yl]methanone] |  |  | 
19 | > 7.00 | > 6.00 | CCC1(O)C2CCC1CN(C(=O)c1cc3c(cn1)c(-c1coc4ccccc14)nn3CC(F)(F)F)C2 (stereo not drawn) [Compound 210, [3-Benzofuran-3-yl-1-(2,2,2-trifluoro-ethyl)-1H-pyrazolo[4,3-c]pyridin-6-yl]-(8-exo-ethyl-8-endo-hydroxy-3-aza-bicyclo[3.2.1]oct-3-yl)-methanone] |  |  | 
20 | > 7.00 | > 6.00 | O=C(c1cc2c(cn1)c(-c1coc3ccccc13)nn2CC(F)(F)F)N1CCC(F)CC1 [Compound 216, [3-Benzofuran-3-yl-1-(2,2,2-trifluoro-ethyl)-1H-pyrazolo[4,3-c]pyridin-6-yl]-(4-fluoro-piperidin-1-yl)-methanone] |  |  | 
